Results taken from patent US12497408B2, “Tetracyclic compounds and methods for the treatment of Zika virus infection” (priority 2021, dated 2025).

Tested on: ZIKV
Assay: ZIKV reporter virus-based antiviral screening on Huh7 cells
Type: cell-based, Zika virus
Details: Huh7 cells infected with recombinant luciferase reporter ZIKV (MOI about 0.1), 48 hrs, luciferase signal; read-out: EC50
Excerpt: Protocol for ZIKV reporter virus-based antiviral screening on Huh7 cells:
• Human hepatocyte-derived carcinoma cell line (Huh7) 2. Reagents • ViviRen™ Live Cell Substrate (Promega, Cat #E6492) or Nano Glo assay system (Promega: N1130) • White opaque 96-well TC-treated microplates (Corning, Cat #3916) • 96-well Clear V-Bottom TC-treated Microplate (Corning, Cat #3894) • Complete cell culture media: DMEM (Gibco, Cat #10569) supplemented with 10% FBS (HyClone, Cat #SH30071.03IH25-40)+1% MEM Non-Essential Amino Acids Solution 100×(Gibco, Cat #11140050)+1% Penicillin-Streptomycin (10,000 U/mL) (Gibco, Cat #15140122). • Assay media: DMEM media (Gibco, Cat #31053028) supplemented with 2% FBS, 2% GlutaMAX™ Supplement (Gibco Cat #35050061), 1% Sodium Pyruvate solution (Gibco, Cat #11360070), 1% MEM Non-Essential Amino Acids Solution 100× and 1% Penicillin-Streptomycin (10,000 U/mL). • Trypsin-EDTA solution (Gibco, Cat #25200056) 3. Virus • Recombinant ZIKV strain with Renilla luciferase gene (strain FSS-Rlu) or Nano luciferase gene (Strain PRV-Nano, Dakar-Nano) 4. Instruments • BioTek Cytation 5 or other plate-readers for chemiluminescence detection model. • Eppendorf plate centrifuge • Plate shaker • Eppendorf multichannel pipettes Procedures Day 1: Preparation of Cells • Human hepatocyte-derived carcinoma cell line (Huh7) cells were detached from a T-175 flask by using a Trypsin-EDTA solution. The detached cells were suspended in complete culture media in a sterile 50-ml conical tube. • The 50-ml conical tube was centrifuged at 1200×rpm for 3 min at room temperature. • The cells were resuspended in assay media. The cell numbers were counted, and the cells diluted to a density of 3×10^5 cells/ml. • The cells were plated at 50 μl cells per well in White opaque 96-well plates (assay plates). Gently shake the plates to ensure cells to attach to the plate evenly. • The plated cells were incubated in a humidified incubator (37° C. with 5% CO2). Day 2: Infection • 1) Nine serial (2-fold or 3-fold) concentrated compounds were prepared using 90% DMSO solution and DMSO controls in a clear V-bottom 96-well plate (compound plate). • For example:
• 2) The reporter virus stock was diluted to a concentration of 3×10^4 FFU (FFU: focus-forming unit)/ml using the assay media. 200 μl diluted virus per well was aliquoted into a clear V-bottom 96-well plate (mixing plate). • 3) 1 μl above 400×concentrated compound dilutions was added from the compound plate to each well of the mixing plate. The plates were shaken on a plate shaker for 5 min. • 4) 50 μl compound-virus mixture was added into each well of the assay plates (the MOI is about 0.1). The plates were shaken gently by mixing the virus evenly. • An example of the format for assay plate:
• control. • 5) The plates were centrifuged at 1000 rpm for 15 s. • 6) The plates were incubated at 37° C. with 5% CO2 in a humidified incubator for 48 hrs. Day 4: Read Luciferase Signals • 7) The ViviRen™ Live Cell Substrate was diluted in assay media for 3000× folds. 25 μl of diluted substrates was added into each well of the assay plates. • For Nano-Glo assay system, 50 μl diluted substrates (50×fold diluted from the stock in assay buffer) were added. • 8) The plates were incubated at room temperature for 5 min. • 9) Optimally, cell viability is measured using the Promega Cell-titer Glo kit (only used when ZIKV-Rlu was used for infection). • 10) Luciferase signals were read using the Cytation 5 with gain value of 120-150. Data Analysis • a. The luciferase signals from DMSO-treated groups (un-treated controls) were set as 100%. The relative luciferase signals were obtained by normalizing the luciferase signals from each dilution-treated group to that of the controls. • b.

Question: Which EC50 does the source give for “methyl ((S)-1-((S)-2-(5-(7-(4-chloro-2-((S)-1-((methoxycarbonyl)-L-valyl)pyrrolidin-2-yl)-1H-imidazol-5-yl)-5,10-dihydrochromeno[5,4,3-cde]chromen-2-yl)-4-isopropyl-1H-imidazol-2-yl)pyrrolidin-1-yl)-3-methyl-1-oxobutan-2-yl)carbamate [Compound 77]” here?
Answer: The EC50 was 13.6 nM.

Same assay, conditions: Zika virus, Huh-7, 48 h, Huh7 cells infected with recombinant luciferase reporter ZIKV (MOI about 0.1), luciferase signal

Question: `COC(=O)N[C@H](C(=O)N1CCC[C@H]1c1nc(C(C)(C)C)c(-c2cc3c4c(c2)OCc2cc(-c5[nH]c([C@@H]6CCCN6C(=O)[C@@H](NC(=O)OC)C(C)C)nc5C(C)(C)C)cc(c2-4)OC3)[nH]1)C(C)C` [Compound 76, Dimethyl ((2S,2′S)-((2S,2′S)-((5,10-dihydrochromeno[5,4,3-cde]chromene-2,7-diyl)bis(4-(tert-butyl)-1H-imidazole-5,2-diyl))bis(pyrrolidine-2,1-diyl))bis(3-methyl-1-oxobutane-1,2-diyl))dicarbamate] was tested. Which EC50 did it give?
Answer: Its EC50 is 496 nM.

Question: For `CC[C@H](C)[C@H](NC(=O)OC)C(=O)N1CCC[C@@]1(C)c1nc(Cl)c(-c2cc3c4c(c2)OCc2cc(-c5[nH]c([C@]6(C)CCCN6C(=O)[C@@H](NC(=O)OC)[C@@H](C)CC)nc5Cl)cc(c2-4)OC3)[nH]1` [Compound 66, dimethyl ((2S,2′S,3S,3′S)-((2S,2′S)-((5,10-dihydrochromeno[5,4,3-cde]chromene-2,7-diyl)bis(4-chloro-1H-imidazole-5,2-diyl))bis(2-methylpyrrolidine-2,1-diyl))bis(3-methyl-1-oxopentane-1,2-diyl))dicarbamate], which EC50 is on record?
Answer: Its EC50 is 44 nM.

Question: Which EC50 does the source give for `CC[C@H](C)[C@H](NC(=O)OC)C(=O)N1[C@H](c2nc(Cl)c(-c3cc4c5c(c3)OCc3cc(-c6[nH]c([C@@H]7C[C@@H]8CCC[C@@H]8N7C(=O)[C@@H](NC(=O)OC)[C@@H](C)CC)nc6Cl)cc(c3-5)OC4)[nH]2)C[C@@H]2CCC[C@@H]21` [Compound 36, dimethyl ((2S,2′S,3S,3′S)-((2S,2′S,3aS,3a′S,6aS,6a′S)-((5,10-dihydrochromeno[5,4,3-cde]chromene-2,7-diyl)bis(4-chloro-1H-imidazole-5,2-diyl))bis(hexahydrocyclopenta[b]pyrrole-2,1(2H)-diyl))bis(3-methyl-1-oxopentane-1,2-diyl))dicarbamate] here?
Answer: The EC50 was 4.3 nM.

Question: For `CC[C@H](C)[C@H](NC(=O)OC)C(=O)N1CC(F)(F)C[C@H]1c1nc(Cl)c(-c2cc3c4c(c2)OCc2cc(-c5[nH]c([C@@H]6CC(F)(F)CN6C(=O)[C@@H](NC(=O)OC)[C@@H](C)CC)nc5Cl)cc(c2-4)OC3)[nH]1` [Compound 57, dimethyl ((2S,2′S,3S,3′S)-((5S,5′S)-((5,10-dihydrochromeno[5,4,3-cde]chromene-2,7-diyl)bis(4-chloro-1H-imidazole-5,2-diyl))bis(3,3-difluoropyrrolidine-5,1-diyl))bis(3-methyl-1-oxopentane-1,2-diyl))dicarbamate], which EC50 is on record?
Answer: Its EC50 is 4.6 nM.

Question: `CC[C@H](C)[C@H](NC(=O)OC)C(=O)N1CCC[C@H]1c1ncc(-c2cc3c4c(c2)OCc2cc(-c5[nH]c([C@@H]6CCCN6C(=O)[C@@H](NC(=O)OC)[C@@H](C)CC)nc5Cl)cc(c2-4)OC3)[nH]1` [Compound 22, methyl ((2S,3S)-1-((S)-2-(5-(7-(4-chloro-2-((S)-1-((methoxycarbonyl)-L-isoleucyl)pyrrolidin-2-yl)-1H-imidazol-5-yl)-5,10-dihydrochromeno[5,4,3-cde]chromen-2-yl)-1H-imidazol-2-yl)pyrrolidin-1-yl)-3-methyl-1-oxopentan-2-yl)carbamate] was tested. Which EC50 did it give?
Answer: Its EC50 is 14.1 nM.

Question: How did the EC50 turn out when `COC(=O)N[C@H](C(=O)N1CC2(CC2)C[C@H]1c1nc(Cl)c(-c2cc3c4c(c2)OCc2cc(-c5[nH]c([C@@H]6CC7(CC7)CN6C(=O)[C@@H](NC(=O)OC)C(C)(C)C(F)(F)F)nc5Cl)cc(c2-4)OC3)[nH]1)C(C)(C)C(F)(F)F` [Compound 61, dimethyl ((2S,2′S)-((6S,6′S)-((5,10-dihydrochromeno[5,4,3-cde]chromene-2,7-diyl)bis(4-chloro-1H-imidazole-5,2-diyl))bis(5-azaspiro[2.4]heptane-6,5-diyl))bis(4,4,4-trifluoro-3,3-dimethyl-1-oxobutane-1,2-diyl))dicarbamate] was run?
Answer: The EC50 was 2.8 nM.

Question: With `COC(=O)N[C@H](C(=O)N1C[C@H](C)C[C@H]1c1nc(Cl)c(-c2cc3c4c(c2)OCc2cc(-c5[nH]c([C@@H]6C[C@@H](C)CN6C(=O)[C@@H](NC(=O)OC)C(C)(C)C(F)(F)F)nc5Cl)cc(c2-4)OC3)[nH]1)C(C)(C)C(F)(F)F` [Compound 3, dimethyl ((2S,2′S)-((3R,3′R,5S,5′S)-((5,10-dihydrochromeno[5,4,3-cde]chromene-2,7-diyl)bis(4-chloro-1H-imidazole-5,2-diyl))bis(3-methylpyrrolidine-5,1-diyl))bis(4,4,4-trifluoro-3,3-dimethyl-1-oxobutane-1,2-diyl))dicarbamate] as the molecule, how does the EC50 read?
Answer: The EC50 was 5.2 nM.

Question: How did the EC50 turn out when `COC(=O)N[C@H](C(=O)N1CC(F)(F)C[C@H]1c1nc(Cl)c(-c2cc3c4c(c2)OCc2cc(-c5[nH]c([C@@H]6CC(F)(F)CN6C(=O)[C@@H](NC(=O)OC)C(C)C)nc5Cl)cc(c2-4)OC3)[nH]1)C(C)C` [Compound 56, dimethyl ((2S,2′S)-((5S,5′S)-((5,10-dihydrochromeno[5,4,3-cde]chromene-2,7-diyl)bis(4-chloro-1H-imidazole-5,2-diyl))bis(3,3-difluoropyrrolidine-5,1-diyl))bis(3-methyl-1-oxobutane-1,2-diyl))dicarbamate] was run?
Answer: The EC50 was 3.8 nM.

Question: Which EC50 does the source give for `COC(=O)N[C@H](C(=O)N1CCCC[C@H]1c1nc(Cl)c(-c2cc3c4c(c2)OCc2cc(-c5[nH]c([C@@H]6CCCCN6C(=O)[C@@H](NC(=O)OC)C(C)C)nc5Cl)cc(c2-4)OC3)[nH]1)C(C)C` [Compound 13, dimethyl ((2S,2′S)-((2S,2′S)-((5,10-dihydrochromeno[5,4,3-cde]chromene-2,7-diyl)bis(4-chloro-1H-imidazole-5,2-diyl))bis(piperidine-2,1-diyl))bis(3-methyl-1-oxobutane-1,2-diyl))dicarbamate] here?
Answer: The EC50 was 4.5 nM.

Question: `CC[C@H](C)[C@H](NC(=O)OC)C(=O)N1C[C@@H](C)C[C@H]1c1ncc(-c2cc3c4c(c2)OCc2cc(-c5[nH]c([C@@H]6C[C@H](C)CN6C(=O)[C@@H](NC(=O)OC)[C@@H](C)CC)nc5C(C)C)cc(c2-4)OC3)[nH]1` [Compound 70, methyl ((2S,3S)-1-((2S,4S)-2-(4-isopropyl-5-(7-(2-((2S,4S)-1-((methoxycarbonyl)-L-isoleucyl)-4-methylpyrrolidin-2-yl)-1H-imidazol-5-yl)-5,10-dihydrochromeno[5,4,3-cde]chromen-2-yl)-1H-imidazol-2-yl)-4-methylpyrrolidin-1-yl)-3-methyl-1-oxopentan-2-yl)carbamate] was tested. Which EC50 did it give?
Answer: The EC50 was 17.4 nM.

Question: How did the EC50 turn out when `CC[C@@H](C)[C@H](NC(=O)OC)C(=O)N1CC2(CC2)C[C@H]1c1nc(Cl)c(-c2cc3c4c(c2)OCc2cc(-c5[nH]c([C@@H]6CC7(CC7)CN6C(=O)[C@@H](NC(=O)OC)[C@H](C)CC)nc5C(C)C)cc(c2-4)OC3)[nH]1` [Compound 83, methyl ((2S,3R)-1-((S)-6-(5-(7-(4-chloro-2-((S)-5-((methoxycarbonyl)-L-alloisoleucyl)-5-azaspiro[2.4]heptan-6-yl)-1H-imidazol-5-yl)-5,10-dihydrochromeno[5,4,3-cde]chromen-2-yl)-4-isopropyl-1H-imidazol-2-yl)-5-azaspiro[2.4]heptan-5-yl)-3-methyl-1-oxopentan-2-yl)carbamate] was run?
Answer: The EC50 was 2.4 nM.
